Holding throughout (format): cell-based
In assay [1] the test system is multiple myeloma cell line KMS-11. Nature of the assay: Cell viability (CellTiter GLO), FGFR inhibitor + glucocorticoid combination, KMS-11. To be noted: for CI of Cpd. + 100 nM Dex: 72 hours; for Synergy Score: Loewe Additivity model. The protocol:
(§1) Cell viability was measured by CellTiter GLO. For the combination treatments in FIGS. 1 and 2, the Y axes were cell viability was normalized to the wells treated with dexamethasone alone.
(§2) All FGFR inhibitors were desolved in DMSO as a 10 mM stock. Serial dilutions, as indicated in each figure, were made as 3× solutions in culture medium before adding to the cell cultures. Dexamethasone and halometasone were dissolved in 100% ethanol as a 10 millimol master stock. Serial dilutions, as indicated in each figure, were made as 3× solutions in culture medium. Cell lines, cell culture and treatment:
(§3) KMS-11 and OPM-2 cell lines can be purchased from HSRRB (Japan) and DSMZ (Germany), respectively. Early passage KMS-11 and OPM-2 cell lines were cultured in RPMI-1640 (ATCC Catalog#30-2001) supplemented with 10% FBS for 1 or 2 passages before treatment. Twenty thousand cells were seeded in each well of a 96-well plate and grew for 24 hours. Cells were then treated in triplicate with vehicle, an FGFR inhibitor (Compound A, B), a glucocorticoid (Dexamethasone or halometasone) alone or a combination at indicated concentrations in 5% CO2 at 37 C for 72 hours. Viability was determined by CellTiter GLO (Promega, Cat#G755B) using identical method as described by the manufacturer. Data analysis:
(§4) Raw CellTiter GLO relative […] unit (RFU) values were acquired using a microplate reader (PerkinElmer Precisely, Perkin Elmer Life and Analytical Sciences). Data analysis was performed using the Chalice software developed by CombinatoRx (Zalicus Inc., Cambridge, Mass., USA). Specifically, the Loewe Additivity (ADD) model was used as the combination reference in the EXAMPLES.

The test system of assay [2] is multiple myeloma cell line OPM-2. Put plainly: Cell viability (CellTiter GLO), FGFR inhibitor + glucocorticoid combination, OPM-2. To be noted: for CI of Cpd. + 100 nM Dex: 72 hours; for Synergy Score: Loewe Additivity model. The protocol:
as §1, §2, §3, §4
On the technique in general: ATP-based viability assays read luminescence as a measure of living cells.

Assay [3] has as its system multiple myeloma cell lines. Put plainly: Inhibition of proliferation of multiple myeloma cell lines by combinations (cell line not specified). As to conditions: with Dexamethasone. The protocol: as §2, §3
Raw CellTiter GLO relative […] unit (RFU) values were acquired using a microplate reader (PerkinElmer Precisely, Perkin Elmer Life and Analytical Sciences). Data analysis was performed using the Chalice software developed by CombinatoRx (Zalicus Inc., Cambridge, Mass., USA). […]

[4] abbreviates: Cpd. 0.0001 nM + 100 nM dexamethasone.
[5] abbreviates: Cpd. 0.001 nM + 100 nM dexamethasone.
[6] abbreviates: Cpd. 0.01 nM + 100 nM dexamethasone.
The mark [7] stands for this setting: Cpd. 0.1 nM + 100 nM dexamethasone.
The mark [8] stands for this setting: Cpd. 1 nM + 100 nM dexamethasone.
The mark [9] stands for this setting: Cpd. 10 nM + 100 nM dexamethasone.
Where [10] appears, read: Cpd. 100 nM + 100 nM dexamethasone.
The mark [11] stands for this setting: Cpd. 1000 nM + 100 nM dexamethasone.
Where [12] appears, read: Cpd. 10000 nM + 100 nM dexamethasone.
Setting [13] is: in combination with Dexamethasone.

`C[C@@H]1C[C@H]2[C@@H]3C[C@H](F)C4=CC(=O)C(Cl)=C[C@]4(C)[C@@]3(F)[C@@H](O)C[C@]2(C)[C@@]1(O)C(=O)CO` [Sicorten, halometasone, reference compound]: the “Chemical 2 concentration in the combination at 50% growth inhibition” value in assay [1] (in combination with Compound A) was “Sicorten (0.01) mM”; in assay [1] (in combination with Compound B), “Sicorten (0.02) mM”; in assay [2] (in combination with Compound A), “Sicorten (0.03) mM”; in assay [2] (in combination with Compound B), “Sicorten (0.02) mM”.

For `CCN1CCN(c2ccc(Nc3cc(N(C)C(=O)Nc4c(Cl)c(OC)cc(OC)c4Cl)ncn3)cc2)CC1` [Compound A, 3-(2,6-dichloro-3,5-dimethoxy-phenyl)-1-{6-[4-(4-ethyl-perpazin-1-yl)-phenylamino]-pyrimidin-4-yl}-1-methyl urea], the “CI of Cpd. + 100 nM Dex” value in assay [1] (setting [4]) was found to be 6.10E−02; in assay [1] (setting [5]) it was 2.20E−02; in assay [1] (setting [6]), 9.00E−03; in assay [1] (setting [7]), 5.00E−03; in assay [1] (setting [8]), 1.00E−03; in assay [1] (setting [9]) it was 4.17E−05. Besides, the “CI of Cpd. + 100 nM Dex” value in assay [1] (setting [10]) came to 1.25E−06; in assay [1] (setting [11]), 1.21E−06; in assay [1] (setting [12]), 1.43E−12; in assay [2] (setting [4]), 1.39E−01; in assay [2] (setting [5]), 5.00E−02; in assay [2] (setting [6]), 4.90E−02. For the same compound, the “CI of Cpd. + 100 nM Dex” value in assay [2] (setting [7]) amounted to 1.50E−02; in assay [2] (setting [8]), 1.10E−02; in assay [2] (setting [9]) it was 3.00E−03; in assay [2] (setting [10]), 7.00E−03; in assay [2] (setting [11]), 5.90E−02; in assay [2] (setting [12]), 4.40E−02. Besides, the “Chemical 1 concentration in the combination at 50% growth inhibition” value in assay [1] (setting [13]) was “A (1.5) mM”; in assay [1] (in combination with Sicorten), “A (4.2) mM”; in assay [2] (setting [13]), “A (0.03) mM”; in assay [2] (in combination with Sicorten) it was “A (1.6) mM”. Also, the “Combination Index (CI) at 50% inhibition” value in assay [1] (setting [13]) is 0.077 ± 0.001; in assay [1] (in combination with Sicorten) it was 0.220 ± 0.006; in assay [2] (setting [13]), 0.034 ± 0.003; in assay [2] (in combination with Sicorten), 0.282 ± 0.007. The Synergy call was “Very strong” in assay [1] (setting [13]), “Strong” in assay [1] (in combination with Sicorten), “Very strong” in assay [2] (setting [13]) and “Strong” in assay [2] (in combination with Sicorten). In addition, the “Synergy Score” value stood at 35 in assay [1] (setting [13]), 10 in assay [1] (in combination with Sicorten), 29 in assay [2] (setting [13]) and 17 in assay [2] (in combination with Sicorten). The “Combination effect on cell viability (figure legend)” value (shortened to “Combination effect on cell viability”) in assay [1] (with Sicorten), in assay [1] (with dexamethasone), in assay [2] (with Sicorten) and in assay [2] (with dexamethasone) was “synergistic effect” each time. The “Reduction by Dexamethasone of the concentration required to achieve 50% of inhibition of proliferation” value in assay [3] was “at least a million fold”.

Regarding `CCN(CC)CCCCNc1ncc2cc(-c3cc(OC)cc(OC)c3)c(NC(=O)NC(C)(C)C)nc2n1` [Compound E, 1-tert-Butyl-3-[6-(3,5-dimethoxy-phenyl)-2-(4-diethylamino-butylamino)-pyrido[2,3-d]pyrimidin-7-yl]-urea, reference compound], the “Combination effect on cell viability” value in assay [1] (with dexamethasone) and in assay [2] (with dexamethasone) was “synergistic effect” in each case.

For `C[C@@H]1C[C@H]2[C@@H]3CCC4=CC(=O)C=C[C@]4(C)[C@@]3(F)[C@@H](O)C[C@]2(C)[C@@]1(O)C(=O)CO` [Dexamethasone, reference compound], the “Chemical 2 concentration in the combination at 50% growth inhibition” value is on record as “(0.14) mM” in assay [1] (in combination with Compound A), “(0.32) mM” in assay [1] (in combination with Compound B), “(0.30) mM” in assay [2] (in combination with Compound A) and “(0.30) mM” in assay [2] (in combination with Compound B).

For the compound `CN1CCN(c2ccc3nc(-c4c(N)c5c(F)cccc5[nH]c4=O)[nH]c3c2)CC1` [Compound B, 4-amino-5-fluoro-3-[6-(4-methylpiperazin-yl)-1H-benzimidazol-2-yl]quinolin-2(1H)-one], the “CI of Cpd. + 100 nM Dex” value in assay [1] (setting [4]) was 2.71E−01; in assay [1] (setting [5]), 1.72E−01; in assay [1] (setting [6]), 1.73E−01; in assay [1] (setting [7]), 1.32E−01; in assay [1] (setting [8]), 1.23E−01; in assay [1] (setting [9]), 9.00E−03. The “CI of Cpd. + 100 nM Dex” value was found to be 1.00E−03 in assay [1] (setting [10]); 4.00E−03 in assay [1] (setting [11]); 3.00E−03 in assay [1] (setting [12]); 1.64E+00 in assay [2] (setting [4]); 1.38E+00 in assay [2] (setting [5]); 1.17E+00 in assay [2] (setting [6]). The “CI of Cpd. + 100 nM Dex” value in assay [2] (setting [7]) came out at 1.10E+00; in assay [2] (setting [8]), 1.00E+00; in assay [2] (setting [9]), 7.94E−01; in assay [2] (setting [10]), 1.86E−01; in assay [2] (setting [11]) it was 5.80E−02; in assay [2] (setting [12]) it was 1.00E−03. For the same compound, the “Chemical 1 concentration in the combination at 50% growth inhibition” value in assay [1] (setting [13]) is “B (0.74) mM”; in assay [1] (in combination with Sicorten) it was “B (0.45) mM”; in assay [2] (setting [13]), “B (1.8) mM”; in assay [2] (in combination with Sicorten), “B (10) mM”. Further, the “Combination Index (CI) at 50% inhibition” value is listed as 0.050 ± 0.004 in assay [1] (setting [13]), 0.371 ± 0.003 in assay [1] (in combination with Sicorten), 0.350 ± 0.010 in assay [2] (setting [13]) and 0.281 ± 0.005 in assay [2] (in combination with Sicorten). Moreover, the Synergy call in assay [1] (setting [13]) is “Very strong”; in assay [2] (in combination with Sicorten), “Strong”. Further, the “Synergy Score” value amounted to 18 in assay [1] (setting [13]), 4 in assay [1] (in combination with Sicorten), 10 in assay [2] (setting [13]) and 14 in assay [2] (in combination with Sicorten). In addition, the “Combination effect on cell viability” value in assay [1] (with Sicorten), in assay [1] (with dexamethasone), in assay [2] (with Sicorten) and in assay [2] (with dexamethasone) was “synergistic effect” in each case.

For the origin of these results see patent US20120258940A1, “METHOD FOR TREATING HAEMATOLOGICAL CANCERS” (priority 2009, published 2012).
